# Measured values reported in US20250000785A1, “COSMETIC COMPOSITION COMPRISING CRANBERRY EXTRACT AND CRANBERRY SEED OIL” (Givaudan SA, priority 2021, published 2025).
# Tested on: TNF-α release of Normal Human Epidermal Keratinocytes (NHEKs) stressed with PMA
# Test: TNF-α release by NHEKs stressed with PMA (ELISA quantification, normalised with MTT)
# Type: cell-based
# Settings: dexamethasone 1 μM, 24 h pre-incubation, then PMA 1 ng/ml 24 h; vs untreated PMA-stressed NHEKs; p<0.001
# Protocol: The effect of a cranberry extract, a cranberry seed oil and combinations of a cranberry extract and a cranberry seed oil on the anti-inflammatory activity of keratinocytes stressed with PMA was evaluated by comparing the decrease of the cytokine TNF-α release of Normal Human Epidermal Keratinocytes (NHEKs) treated with the cranberry products and stressed with PMA (Phorbol 12-myristate 13-acetate) with the TNF-α release of untreated NHEKs stressed with PMA.
# The cell culture was done on primary cells isolated from fresh biopsies. NHEKs were seeded in a type I collagen pre-coated 24 wells-plate at 30 000 cells per well in triplicate. […]
# A MTT assay was performed to evaluate treatments toxicity and for the normalisation of TNF-α quantification.
# MTT solution (Sigma) diluted at 1 mg/mL in basal medium was added to each well and incubated for 3 hours at 37° C., 5% CO2. […] The optical density was measured at a wavelength of 560 nm.
# The TNF-α quantification was realized with the Human TNF-alpha Quantikine ELISA kit (DTA00D, R&D Systems).
# The samples and the standard range were incubated for 2 hours in 96-wells plate pre-coated with a monoclonal antibody specific for human TNF-α in presence of the Assay Diluent RD1F. […] The optical density was measured at 450 nm and 540 nm with a microplate reader (TECAN SPARK® 10M). […]
# The quantification was carried out in duplicate. […]
structure (smiles),measurement,value
"C[C@@H]1C[C@H]2[C@@H]3CCC4=CC(=O)C=C[C@]4(C)[C@@]3(F)[C@@H](O)C[C@]2(C)[C@@]1(O)C(=O)CO [dexamethasone, Dexamethasone]",reduction of the release of cytokine TNF-α,46%
